Laboratory results as given in patent US10670605B2, “Cysteine reactive probes and uses thereof” (The Scripps Research Institute, priority 2015, dated 2020).
Blank lines part the entries; values can stand above or below the molecule they belong to.

Experiments:
Assay in all cases: Competitive isoTOP-ABPP in situ (fragment-treated cells)
Type in all cases: cell-based
[1] = biological target: cysteines in MDA-MB-231 and Ramos cells (Homo sapiens, UniProt Q9BXW7)
[2] = biological target: T1, cysteines in MDA-MB-231 and Ramos cells (Homo sapiens, UniProt Q9HCC0)
T1 sequence (Q9HCC0 23-563): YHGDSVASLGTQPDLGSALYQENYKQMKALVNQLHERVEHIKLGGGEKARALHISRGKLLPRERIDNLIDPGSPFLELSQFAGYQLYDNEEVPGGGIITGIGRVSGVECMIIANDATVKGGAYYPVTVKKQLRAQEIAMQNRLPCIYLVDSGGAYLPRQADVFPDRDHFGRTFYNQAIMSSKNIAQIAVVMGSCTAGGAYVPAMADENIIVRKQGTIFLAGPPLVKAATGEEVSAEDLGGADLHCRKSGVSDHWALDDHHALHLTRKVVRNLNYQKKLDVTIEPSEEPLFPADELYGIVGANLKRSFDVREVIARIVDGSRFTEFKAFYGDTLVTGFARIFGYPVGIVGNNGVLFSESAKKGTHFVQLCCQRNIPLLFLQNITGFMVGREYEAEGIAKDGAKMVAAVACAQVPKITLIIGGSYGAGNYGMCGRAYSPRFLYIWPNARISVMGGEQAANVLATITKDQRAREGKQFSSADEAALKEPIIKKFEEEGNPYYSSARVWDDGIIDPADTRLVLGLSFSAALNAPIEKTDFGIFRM

[3] = biological target: T2, cysteines in MDA-MB-231 and Ramos cells (Homo sapiens, UniProt Q15084)
T2 sequence (Q15084 20-440): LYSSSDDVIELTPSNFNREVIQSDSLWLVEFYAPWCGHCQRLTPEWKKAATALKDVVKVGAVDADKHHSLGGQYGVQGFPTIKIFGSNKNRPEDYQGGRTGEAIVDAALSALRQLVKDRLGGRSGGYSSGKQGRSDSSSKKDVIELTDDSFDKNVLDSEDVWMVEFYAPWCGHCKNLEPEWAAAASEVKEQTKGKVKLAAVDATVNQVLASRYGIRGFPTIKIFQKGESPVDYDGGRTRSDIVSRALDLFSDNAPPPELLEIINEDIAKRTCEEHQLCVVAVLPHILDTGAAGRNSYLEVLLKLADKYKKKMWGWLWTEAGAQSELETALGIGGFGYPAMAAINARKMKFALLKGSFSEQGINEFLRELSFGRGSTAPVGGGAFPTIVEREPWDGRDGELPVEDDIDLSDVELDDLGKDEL

[4] = biological target: T3, cysteines in MDA-MB-231 and Ramos cells (Homo sapiens, UniProt Q29RF7)
T3 sequence (Q29RF7 1-1337): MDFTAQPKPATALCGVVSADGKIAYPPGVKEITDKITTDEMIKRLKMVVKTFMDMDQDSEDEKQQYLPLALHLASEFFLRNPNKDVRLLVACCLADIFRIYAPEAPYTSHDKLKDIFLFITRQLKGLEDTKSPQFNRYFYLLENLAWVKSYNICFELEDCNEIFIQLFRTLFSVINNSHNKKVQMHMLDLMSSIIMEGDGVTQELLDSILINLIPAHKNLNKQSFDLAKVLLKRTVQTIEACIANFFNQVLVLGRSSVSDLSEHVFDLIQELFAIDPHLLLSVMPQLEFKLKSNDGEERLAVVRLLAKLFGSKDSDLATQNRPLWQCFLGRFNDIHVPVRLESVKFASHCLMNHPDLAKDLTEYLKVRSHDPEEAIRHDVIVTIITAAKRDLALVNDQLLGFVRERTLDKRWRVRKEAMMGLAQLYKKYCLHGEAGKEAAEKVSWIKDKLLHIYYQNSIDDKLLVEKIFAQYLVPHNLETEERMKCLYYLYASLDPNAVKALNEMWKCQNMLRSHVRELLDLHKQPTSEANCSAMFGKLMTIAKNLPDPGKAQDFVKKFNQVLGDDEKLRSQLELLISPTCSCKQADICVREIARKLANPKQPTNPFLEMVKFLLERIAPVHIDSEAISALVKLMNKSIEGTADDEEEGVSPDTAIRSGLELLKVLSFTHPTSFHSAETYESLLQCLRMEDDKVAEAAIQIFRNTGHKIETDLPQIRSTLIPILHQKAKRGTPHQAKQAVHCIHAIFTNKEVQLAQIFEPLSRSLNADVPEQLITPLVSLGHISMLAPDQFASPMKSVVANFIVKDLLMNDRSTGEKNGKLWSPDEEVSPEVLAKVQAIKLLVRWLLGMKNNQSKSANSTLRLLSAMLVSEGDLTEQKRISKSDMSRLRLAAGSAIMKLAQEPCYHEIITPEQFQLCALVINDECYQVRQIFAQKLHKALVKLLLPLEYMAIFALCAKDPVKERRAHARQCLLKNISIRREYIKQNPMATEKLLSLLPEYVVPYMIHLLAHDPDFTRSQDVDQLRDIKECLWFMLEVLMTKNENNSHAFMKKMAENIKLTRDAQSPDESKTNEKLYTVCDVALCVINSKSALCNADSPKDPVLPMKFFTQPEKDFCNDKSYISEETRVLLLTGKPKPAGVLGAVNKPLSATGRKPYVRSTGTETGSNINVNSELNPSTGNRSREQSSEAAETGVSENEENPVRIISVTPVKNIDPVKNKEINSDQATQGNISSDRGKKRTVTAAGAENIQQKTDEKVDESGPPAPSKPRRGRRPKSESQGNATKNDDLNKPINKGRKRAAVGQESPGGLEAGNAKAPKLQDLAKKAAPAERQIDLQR

[5] = biological target: T4, cysteines in MDA-MB-231 and Ramos cells (Homo sapiens, UniProt P04183)
T4 sequence (P04183 1-234): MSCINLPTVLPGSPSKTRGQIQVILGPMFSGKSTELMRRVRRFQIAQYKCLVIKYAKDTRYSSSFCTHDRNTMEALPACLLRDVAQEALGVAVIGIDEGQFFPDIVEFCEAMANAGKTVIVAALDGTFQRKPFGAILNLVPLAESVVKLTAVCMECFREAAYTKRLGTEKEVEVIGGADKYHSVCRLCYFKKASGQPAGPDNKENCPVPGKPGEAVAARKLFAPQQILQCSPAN

Sequence of cysteines in MDA-MB-231 and Ramos cells (Homo sapiens, UniProt Q9BXW7) (Q9BXW7 24-423): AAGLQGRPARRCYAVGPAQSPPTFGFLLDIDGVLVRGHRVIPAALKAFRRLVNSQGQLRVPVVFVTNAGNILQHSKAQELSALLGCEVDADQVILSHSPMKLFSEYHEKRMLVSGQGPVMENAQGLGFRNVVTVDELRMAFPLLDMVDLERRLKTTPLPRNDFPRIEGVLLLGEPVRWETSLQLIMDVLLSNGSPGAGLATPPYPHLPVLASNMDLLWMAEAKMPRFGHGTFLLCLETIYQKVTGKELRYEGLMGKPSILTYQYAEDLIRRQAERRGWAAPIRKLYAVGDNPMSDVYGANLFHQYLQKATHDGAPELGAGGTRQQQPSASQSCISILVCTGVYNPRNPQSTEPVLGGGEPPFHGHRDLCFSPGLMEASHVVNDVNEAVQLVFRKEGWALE

SMILES: C=CC(=O)Nc1cc(F)c(N2CCN(C(=O)OC(C)(C)C)CC2)c(F)c1 [compound 38]
isoTOP-ABPP ratio Q9BXW7_C392 ([1]; 200 μM, insitu, 231): 0.8 | isoTOP-ABPP ratio Q15084_C55 ([3]; 200 μM, insitu, 231): 0.8 | isoTOP-ABPP ratio, Q15084_C190 ([3]; 200 μM, insitu, 231): 1.0 | isoTOP-ABPP ratio Q29RF7_C242 ([4]; 200 μM, insitu, 231): 1.0 | isoTOP-ABPP ratio P04183_C230 ([5]; 200 μM, insitu, 231): 2.8

SMILES: COc1ccc2c(c1)CCCN2C(=O)CCl [compound 2]
isoTOP-ABPP reactivity Q9BXW7_C392 CECR5 ([1]; 200 μM, insitu, 231): 3.6 | isoTOP-ABPP reactivity Q9HCC0_C216 MCCC2 ([2]; 200 μM, insitu, 231): 4.6 | isoTOP-ABPP reactivity Q15084_C55 PDIA6 ([3]; 200 μM, insitu, 231): 3.0 | isoTOP-ABPP reactivity P04183_C230 TK1 ([5]; 200 μM, insitu, 231): 1.9

SMILES: COc1cc2c(cc1OC)CN(C(=O)CCl)CC2 [compound 8]
isoTOP-ABPP reactivity Q9BXW7_C392 CECR5 ([1]; 200 μM, insitu, 231): 3.2 | isoTOP-ABPP reactivity Q9HCC0_C216 MCCC2 ([2]; 200 μM, insitu, 231): 3.9 | isoTOP-ABPP reactivity Q15084_C55 PDIA6 ([3]; 200 μM, insitu, 231): 4.4 | isoTOP-ABPP reactivity Q15084_C190 PDIA6 ([3]; 200 μM, insitu, 231): 5.2 | isoTOP-ABPP reactivity Q29RF7_C242 PDS5A ([4]; 200 μM, insitu, 231): 1.0 | isoTOP-ABPP reactivity P04183_C66 TK1 ([5]; 200 μM, insitu, 231): 2.3

SMILES: CC(C)CCOCCNC(=O)CCl [compound 27]
isoTOP-ABPP ratio Q9BXW7_C392 ([1]; 200 μM, insitu, 231): 1.3 | isoTOP-ABPP ratio Q9HCC0_C216 ([2]; 200 μM, insitu, 231): 1.0 | isoTOP-ABPP ratio Q15084_C55 ([3]; 200 μM, insitu, 231): 1.2 | isoTOP-ABPP ratio, Q15084_C190 ([3]; 200 μM, insitu, 231): 1.0 | isoTOP-ABPP ratio Q29RF7_C242 ([4]; 200 μM, insitu, 231): 0.9

SMILES: O=C(CCl)N1CCN(CC(=O)N2CCOCC2)CC1 [compound 29]
isoTOP-ABPP ratio Q9BXW7_C392 ([1]; 200 μM, insitu, ramos): 1.5 | isoTOP-ABPP ratio Q15084_C55 ([3]; 200 μM, insitu, ramos): 1.0 | isoTOP-ABPP ratio, Q15084_C190 ([3]; 200 μM, insitu, ramos): 1.0 | isoTOP-ABPP ratio P04183_C66 ([5]; 200 μM, insitu, ramos): 1.6 | isoTOP-ABPP ratio P04183_C230 ([5]; 200 μM, insitu, ramos): 1.2

SMILES: C=CC(=O)N(Cc1cccnc1)c1cc(C(F)(F)F)cc(C(F)(F)F)c1 [compound 31]
isoTOP-ABPP ratio Q15084_C55 ([3]; 200 μM, insitu, 231): 0.7 | isoTOP-ABPP ratio, Q15084_C190 ([3]; 200 μM, insitu, 231): 1.0 | isoTOP-ABPP ratio Q29RF7_C532 ([4]; 200 μM, insitu, 231): 5.1 | isoTOP-ABPP ratio Q29RF7_C532 ([4]; 200 μM, insitu, ramos): 8.1 | isoTOP-ABPP ratio P04183_C66 ([5]; 200 μM, insitu, 231): 0.7 | isoTOP-ABPP ratio P04183_C230 ([5]; 200 μM, insitu, ramos): 2.1

More lines, main results first:

isoTOP-ABPP ratio Q9BXW7_C392 ([1]; 100 μM in situ 231): 1.1 | isoTOP-ABPP ratio Q15084_C55 ([3]; 100 μM in situ 231): 4.3 | isoTOP-ABPP ratio, cysteine Q29RF7_C242 ([4]; 100 μM in situ 231): 0.9 | isoTOP-ABPP ratio, cysteine P04183_C66 ([5]; 100 μM in situ 231): 0.6
SMILES: Cn1cc(S(=O)(=O)N2CCOCC2)cc1C(=O)NC(=O)CCl [compound 11]
isoTOP-ABPP ratio Q9HCC0_C216 ([2]; 100 μM in situ 231): 1.9

isoTOP-ABPP ratio Q9BXW7_C392 ([1]; 200 μM, insitu, 231): 4.9 | isoTOP-ABPP ratio Q15084_C55 ([3]; 200 μM, insitu, 231): 2.0 | isoTOP-ABPP ratio, Q15084_C190 ([3]; 200 μM, insitu, 231): 2.8 | isoTOP-ABPP ratio P04183_C230 ([5]; 200 μM, insitu, 231): 2.0
SMILES: CC1CCc2ccccc2N1C(=O)CCl (centres unmarked) [compound 45]
isoTOP-ABPP ratio Q9HCC0_C216 ([2]; 200 μM, insitu, 231): 7.0

isoTOP-ABPP ratio Q9BXW7_C392 ([1]; 200 μM, insitu, 231): 20.0 | isoTOP-ABPP ratio Q15084_C55 ([3]; 200 μM, insitu, 231): 3.1 | isoTOP-ABPP ratio, Q15084_C190 ([3]; 200 μM, insitu, 231): 3.7 | isoTOP-ABPP ratio, cysteine Q29RF7_C532 ([4]; 200 μM, insitu, 231): 20.0 | isoTOP-ABPP ratio P04183_C230 ([5]; 200 μM, insitu, 231): 1.3
SMILES: O=C(CCl)N1CCN(S(=O)(=O)c2ccccc2F)CC1 [compound 10]
isoTOP-ABPP ratio Q9HCC0_C216 ([2]; 200 μM, insitu, 231): 2.3
